The test system of assay [1] is choline acetyltransferase (ChAT) activity in dissociated rat embryonic spinal cord culture. Kind of assay: Spinal Cord ChAT Activity Assay. Type of assay: cell-based. The following applies: ChAT measured after 48 hours.
Description: In these assays, a fused pyrrolocarbazole was directly added to a dissociated spinal cord culture. […] The fused pyrrolocarbazole was added on the same day the dissociated spinal cord cell culture was initiated.
Methods: Fetal rat spinal cord cells were dissociated, and experiments were performed as described (Smith et al., J. Cell Biology., 101:1608-1621 (1985); Glicksman et al., J. Neurochem. 61:210-221 (1993)). Dissociated cells were prepared from spinal cords dissected from rats (embryonic day 14-15) by standard trypsin dissociation techniques (Smith et al., J. Cell Biology 10:1608-1621 (1985)). Cells were plated at 6×10^5 cells/cm^2 on poly-1-ornithine coated plastic tissue culture wells in serum-free N2 medium supplemented with 0.05% bovine serum albumin (BSA) (Bottenstein et al., PNAS USA 514-517 (1979)). Cultures were incubated at 37° C. in a humidified atmosphere of 5% CO2 /95% air for 48 hours. ChAT activity was measured after 2 days it vitro using a modification of the Fonnum procedure (Fonnum, J. Neurochem. 24:407-409 (1975)) according to McManaman et al. and Glicksman et al. (McManaman et al., Developmental Biology 125:311-320 (1988); Glicksman et al., J. Neurochem. 61:210-221 (1993)).
The subject of assay [2] is ChAT activity of basal forebrain cultures. Kind of assay: Basal Forebrain ChAT Activity Assay. Type of assay: cell-based, rat. Here is the method:
Fused pyrrolocarbazoles were tested for the ability to increase ChAT activity of basal forebrain cultures.
Methods: The basal forebrain was dissected from rat embryos (day 17 or 18 embryos) and the cells were dissociated with a neutral protease (Dispase™, Collaborative Research). Neurons were plated at a density of 5×10^4 cells/well (1.5×10^5 cells/cm^2) in poly-1-ornithine and laminin coated plates. Cells were cultured in serum-free N2 medium containing 0.05% BSA at 37° C. in a humidified atmosphere, 5% CO2 /95% air. ChAT activity was assessed 5 days after plating by using the ChAT assay as described in Example III(A)(1).

Assay [3] addresses protein kinase C. The experiment in a line: PKC Activity Inhibition Assay. The format is biochemical. Here is the method: Fused pyrrolocarbazoles inhibited the activity of protein kinase C (Table VI). The protein kinase C assay has been disclosed (Murakata et al., U.S. Pat. No. 4,923,986; Kikkawa et al., J. Biol. Chem. 257:13341-13348 (1982)). The assay was performed with several concentrations of fused pyrrolocarbazoles. The concentration at which protein kinase C was 50% inhibited (IC50) was determined.

The test system of assay [4] is AT-2 cells. Kind of assay: Inhibition of Growth of Prostate Cancer Cell Line (MTS assay). Type of assay: cell-based. As to conditions: 72 h, read-out: AT-2 cell growth IC50. As for the experimental part: AT-2 cells are a prostate cancer cell sub-line derived from the Dunning H tumor, graciously provided to us by Dr. John Isaacs (John Hopkins, M. D.). Unlike the Dunning H tumor cells, AT-2 cells can be grown in vitro.
Methods: At-2 cells ([…]) were plated on tissue culture plastic in 96-well plates in the presence of RPMI-1640 medium containing 10% fetal calf serum, 250 nM dexamethasone, 2 mM glutamine, 1 mM sodium pyruvate, and penicillin/streptomycin antibiotics. The next day, compounds were added at 4 concentrations (10, 1, 0.1, 0.01 μM) to determine the approximate IC50 range. Cultures were assayed 3 days later for cell number using the MTS [(3-(4,5-dimethylthiazol-2-yl)-5-(3-carboxymethoxyphenyl)-2-(4-sulfophenyl)-2H-tetrazolium, inner salt)] assay. The MTS assay (purchased as a kit from Promega) measures the formation of an aqueous soluble formazan (detected by a plate reader at 490nm) produced by the bioreduction of a tetrazolium compound (MTS) in metabolically active cells via mitochondrial succinate dehydrogenase. After determining linearity of the substrate incubation time over a range of cell plating densities, the amount of product measured is directly proportional to cell number. MTS (333 ug/ml) and 25 μM phenazine methosulfate are mixed and added directly to the culture medium, and incubated at 37° C. in the 5% CO2 /95% air incubator for 0.5-4 h. Absorbance of the product at 490 nm is read on the BIO-TEK plate reader. Background values were obtained from wells containing culture medium with substrate solution, but no cells. In addition, values were also obtained from wells containing cells plated at day 0 and assayed on the day compound was added (day 1) in order to determine the number of cells at the time compound was added. After the initial dose-finding experiment was completed, subsequent experiments were set up so that there were 3 or more concentrations near the predicted IC50.
For orientation: Formazan colour is commonly taken as a measure of viable cells.

The test system of assay [5] is NT-3 induced ChAT activity of rat basal forebrain cultures. The experiment in a line: Enhancement of Neurotrophin (NT-3) Activity Assay, ChAT activity in basal forebrain cultures. The format is cell-based. Here is the method:
Fused pyrrolocarbazoles were tested for the ability to enhance the activity of the neurotrophin NT-3 in basal forebrain cultures. ChAT activity was assayed as a measure of cholinergic neuron function and survival. The concentration of NT-3 (100 ng/ml) used in these experiments increased ChAT activity over control cultures (untreated with NT-3 or a fused pyrrolocarbazole) by 140%.
Methods. Basal forebrain cultures were prepared from embryonic rats (embryonic day 17) and dissociated with the neutral protease Dispase™. Cells were plated at a density of 4×10^5 cells/cm^2 on poly-1-ornithine coated plastic tissue culture plates in a mixture of DMEM and F12 media (50/50 v/v GIBCO) supplemented with 5% horse serum and 0.5% fetal bovine serum. Cells were incubated at 37° C. in a humidified atmosphere of 5% CO2 /95% air for 5 days. ChAT activity was measured as described in Example III(A)(1).
Recombinant rat NT-3 was produced by using a recombinant baculovirus expression vector under the control of the polyhedron virus promoter (Fraser, In Vitro Cell. and Dev. Biol. 25:225-235 (1989)). The plasmid pXM-NT3 (Hallbook et al., Neuron 6:845-858 (1991), which contained the rat NT-3 cDNA clone, was provided by Dr. Ira Black (University of Medicine and Dentistry of New Jersey, Piscataway, N.J.). NT-3 cDNA was subcloned into the transfer vector pVL1392 (In Vitrogen Corp., San Diego, Calif.) for recombinant virus production. Recombinant baculovirus was produced as described in Meyer et al. (Meyer at al., J. Neurochem 62:825-833 (1994)).

The target of assay [6] is trkA tyrosine kinase (Homo sapiens, UniProt P04629). Kind of assay: trkA Tyrosine Kinase Activity Inhibition Assay (ELISA). Type of assay: biochemical. (In general: An ELISA detects its analyte on a solid surface through an enzyme-linked reagent.)
Description: These compounds were then tested for the ability to inhibit substrate phosphorylation by the trkA tyrosine kinase.
Plates were washed three times with TBST, followed by two washes with TBS (TBST sans Tween-20). Fused pyrrolocarbazoles were then added at various concentrations to a reaction mixture (50 mM HEPES, pH 7.4, 5 mM MnCl2, 5 mM MgCl2, 140 mM NaCl, 16 μM ATP, and 15 ng trkA in a total volume of 1001 μL.). As a negative control, 100 mM EDTA was included in the reaction solution. The plates were then incubated at 37° C. for 15 min. The detection antibody, monoclonal anti-phosphotyrosine antibody (UBI), was added at a dilution of 1:2000 in TBST, and incubated for 1 hour at 37° C. Plates were then washed three times with TBST, followed by a 1 hour incubation at 37° C. with alkaline phosphatase-labeled goat anti-mouse IgG (1:2000 in TBST (Bio-Rad)). After washing three times with TBST followed by two washes with TBS, a colored product was produced by using NADPH as substrate for alkaline phosphatase, and the coupled reactions of diaphorase and alcohol dehydrogenase (GIBCO-BRL ELISA amplification system). The colored product was read at 490 nm in a microplate reader (Biotek).
The test system of assay [7] is chick DRG neurons. The experiment in a line: DRG Neuron Survival Assay (calcein AM). The format is cell-based. As to conditions: 48 hours; for viability at 0.25 µM: 250 nM. As for the experimental part:
Fused pyrrolocarbazoles promoted dorsal root ganglion (DRG) neuronal survival in cultures of chick DRG neurons. Cell survival was measured by uptake of calcein AM, an analog of the viable dye, fluorescein diacetate. Calcein is taken up by viable cells and cleaved intracellularly to fluorescent salts which are retained by intact membranes of viable cells. Microscopic counts of viable neurons correlate directly with relative fluorescence values obtained with the fluorimetric viability assay. This method thus provides a reliable and quantitive measurement of cell survival in the total cell population of a given culture (Bozyczko-Coyne et al., J. Neur. Meth. 50:205-216, 1993).
Methods: Dorsal root ganglia were dissected from embryonic age day 9 chick embryos and dissociated cells prepared by subsequent Dispase (neutral protease, Collaborative Research) dissociation. Neurons were seeded at low density (3×10^4 cells/cm^2) into 96 well poly-L-ornithine and laminin coated plates. Cells were cultured for 48 hours in serum-free N2 medium (Bottenstein and Sato, 1979) at 37° C. in a humidified atmosphere, 5% CO2 /95% air. Cell survival was assessed at 48 hours using the viable fluorimetric assay described above.

The mark [8] stands for this setting: 16 μM ATP, 37° C., 15 min, read-out: INHIBITION OF trkA KINASE IC50.
Setting [9] is: Gallus gallus, DRG neuron, read-out: Neuronal Survival (% of Control).

Molecules are shown by their SMILES. Like-named read-outs stand apart in the source and are kept apart here.

Chain of trkA tyrosine kinase (P04629 33-796): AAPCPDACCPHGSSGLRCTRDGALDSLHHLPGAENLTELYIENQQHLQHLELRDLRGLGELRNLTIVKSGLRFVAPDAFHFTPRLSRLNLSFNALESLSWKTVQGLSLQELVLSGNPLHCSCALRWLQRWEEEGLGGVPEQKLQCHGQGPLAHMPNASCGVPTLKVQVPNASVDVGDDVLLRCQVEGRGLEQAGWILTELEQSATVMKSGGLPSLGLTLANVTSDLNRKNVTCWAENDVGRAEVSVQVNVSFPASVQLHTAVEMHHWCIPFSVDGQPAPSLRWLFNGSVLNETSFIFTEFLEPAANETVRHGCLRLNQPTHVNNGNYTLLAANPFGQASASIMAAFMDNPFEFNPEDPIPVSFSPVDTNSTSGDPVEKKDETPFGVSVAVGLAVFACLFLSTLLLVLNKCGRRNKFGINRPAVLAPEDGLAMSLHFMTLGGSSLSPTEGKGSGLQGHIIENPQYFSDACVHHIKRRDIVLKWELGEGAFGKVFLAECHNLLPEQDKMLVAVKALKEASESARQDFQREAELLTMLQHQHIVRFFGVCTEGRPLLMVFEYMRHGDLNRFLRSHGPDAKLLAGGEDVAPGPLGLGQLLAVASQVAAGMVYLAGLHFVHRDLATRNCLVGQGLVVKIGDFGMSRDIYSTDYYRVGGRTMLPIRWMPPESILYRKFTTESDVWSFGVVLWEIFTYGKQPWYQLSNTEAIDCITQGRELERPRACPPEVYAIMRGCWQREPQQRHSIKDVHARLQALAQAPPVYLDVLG

Take `O=C1NCc2c3c(c4[nH]c5ccccc5c4c21)Cc1ccccc1-3` [Compound I-3]: in assay [1], the “Spinal Cord ChAT Activity, % of Control, untreated cultures” value (“Spinal Cord ChAT Activity, % of Control” below) is on record as 174 % of Control. Besides, the “ChAT Activity (% of Control)” value in assay [2] (100 nM) and in assay [2] (250 nM) was “inactive” throughout. In addition, in assay [2] (Rattus norvegicus, 120 h, 500 nM, read-out: ChAT Activity (% of Control)), the activity at 0.5 µM turned out to be 130%. For the same compound, the IC50 (in general, the concentration at which inhibition is half-maximal) was found to be 100 nM in assay [3] and 380 nM in assay [4] (3 days, MTS).
`O=C1NC(=O)c2c1c1c(c3[nH]c4ccc(F)cc4c23)Cc2ccccc2-1` [Compound I-7]: the “Spinal Cord ChAT Activity, % of Control” value in assay [1] is 164 % of Control. Further, the “ChAT activity in the absence of NT-3” value in assay [5] (compound added alone to basal forebrain neurons, no NT-3) is on record as “no effect on ChAT activity”. Besides, the “ChAT activity in the presence of NT-3” value in assay [5] (with 100 ng/ml NT-3) is “enhanced ChAT activity”. Further, the IC50 in assay [3] is 150 nM; in assay [6] (setting [8]), greater than 1000 nM; in assay [4] (3 days, MTS), 1370 nM.
`O=C1NC(=O)c2c1c1c(c3[nH]c4ccccc4c23)CCc2ccccc2-1` [Compound I-14, 12,13-Dihydro-6H, 14H-naphthyl[3,4-a]pyrrolo[3,4-c]carbazole-5,7(5H, 7H)dione]: the “Spinal Cord ChAT Activity, % of Control” value in assay [1] was 153 % of Control. Moreover, the IC50 in assay [3] was 15 nM; in assay [4], 3070 nM.
Take `O=C1NC(=O)c2c1c1c3ccccc3ccc1c1[nH]c3ccccc3c21` [Compound I-15, 6H, 14H-naphthyl[3,4-a]pyrrolo[3,4-c]carbazole-5,7(5H, 7H)-dione]: in assay [1], the “Spinal Cord ChAT Activity, % of Control” value is recorded as 182 % of Control. Also, the “Neuronal Survival (% of Control)” value in assay [7] (100 nM) and in assay [7] (500 nM) was “inactive” each time. Besides, in assay [7] (setting [9]), the viability at 0.25 µM was 132%. In addition, the IC50 in assay [3] was 50 nM; in assay [6], greater than 1000 nM; in assay [4] it was 4300 nM.
Consider `O=C1NC(=O)c2c1c1c3ccccc3[nH]c1c1sc3ccccc3c21` [Compound I-20, 6H, 12-Benzo[b]thieno[2,3-a]pyrrolo[3,4-c]carbazole-5,7(5H,7H)dione], for which the “Spinal Cord ChAT Activity, % of Control” value in assay [1] is 130 % of Control. The IC50 in assay [3] is 150 nM; in assay [4] (3 days, MTS), greater than 10000 nM.
As for `O=C1NC(=O)c2c1c1c3ccccc3[nH]c1c1oc3ccccc3c21` [Compound I-21, 6H, 13H -Benzofuranyl[2,3-a]pyrrolo[3,4-c]carbazole-5,7(5H, 7H)dione], the “Spinal Cord ChAT Activity, % of Control” value in assay [1] is reported as 122 % of Control. The half-maximal inhibitory concentration (IC50) in assay [4] (3 days, MTS) was greater than 10000 nM.
For the compound `O=C1NCc2c1c1c(c3[nH]c4ccc(C=Cc5ccccc5)cc4c23)Cc2ccccc2-1` [Compound I-24, 3-(2-Phenylethenyl)5H,6H,12H,13H-indeno[2,3-a]pyrrolo[3,4-c]carbazole-7(7H)-one], the “Spinal Cord ChAT Activity, % of Control” value in assay [1] is reported as 236 % of Control. Moreover, in assay [2] (100 nM), the “ChAT Activity (% of Control)” value was “inactive”. For the same compound, in assay [2] (Rattus norvegicus, 120 h, 250 nM, read-out: ChAT Activity (% of Control)), the activity at 0.25 µM was 151%. Also, the viability at 0.1 µM in assay [7] (Gallus gallus, DRG neuron, 100 nM, read-out: Neuronal Survival (% of Control)) was 154%. The viability at 0.25 µM in assay [7] (setting [9]) is 167%. Further, the viability at 0.5 µM in assay [7] (Gallus gallus, DRG neuron, 500 nM, read-out: Neuronal Survival (% of Control)) is 163%. The 50% inhibitory concentration (IC50) in assay [3] was 8000 nM; in assay [6] (setting [8]), greater than 1000 nM; in assay [4] (3 days, MTS), greater than 10000 nM.

The values above are taken from patent US5594009A, “Fused pyrrolocarbazoles” (priority 1995, dated 1997).
